Measurements as given in US20240415819A1, “MACROCYCLIC COMPOUNDS AS PROTEASOME SUBUNIT BETA TYPE-5 INHIBITORS” (Lead Discovery Center GmbH, priority 2021, published 2024).
Like-named read-outs stand apart in the source and are kept apart here.

What was measured:
[1] = target: T1, β5 subunit of the human immunoproteasome (IPS) (Homo sapiens, UniProt P28062); assay: β5 inhibition assay, human immunoproteasome (Suc-LLVY-AMC); assay type: biochemical; conditions: IC50 class, Suc-LLVY-AMC substrate
T1 construct: purchased Boston Biochem E-370
Procedure, shortened: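 β5 activity is read as liberated AMC fluorescence (355/460 nm) after 4 h dark reaction at RT with 22.6 μM Suc-LLVY-AMC, stopped by 1 μM bortezomib. Beforehand, 1 nM human IPS and compound sat 10 min at RT in HEPES pH 7.5 buffer containing NaCl, 0.02% SDS and DTT.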

[2] = test system: RPMI 8226 (B lymphocyte cell line, multiple myeloma); assay: 48 hr CTG viability assay, RPMI 8226; assay type: cell-based; conditions: Homo sapiens
Procedure, shortened: (§1)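 Growth inhibition by compound over 48 h; IC50 (nM) derived from duplicate CellTiter-Glo luminescence readings across 0.0015–10 uM.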

[3] = test system: Hs 746T (human gastric carcinoma cell line); assay: 48 hr CTG viability assay, Hs 746T; assay type: cell-based; conditions: Hs746T
Description: A viability assay was conducted for 48 hours to evaluate the inhibition of cancer cell growth by proteasome inhibitors. Briefly, the candidate cell line was plated with a 96-well plate following density of cells, respectively. 6×10^3 Cells/well for A2780 (human ovarian cancer cell line) and MDA-MB-468 (breast carcinoma), 8×10^3 Cells/well for Hs746T (human gastric carcinoma cell line), 1.1×10^4 Cells/well for MM1 S and RPMI 8226 (multiple myeloma). After 24 hours, the cells were treated with various concentrations of the compound (ranging from 0.0015 uM to 10 uM). […] After 48 hours of incubation at 37° C., 5% CO2 incubator, cells were analyzed for viability using the CellTiter-Glo Luminescent Cell Viability assay (Promega, Cat #G7570). All viability assays were performed in duplicate and Luminescence was read using an Envision (Perkin Elmer, USA). Data were analyzed using XLfit software. […] (human gastric carcinoma cell line), MM1 S (B lymphoblast cell line), and RPMI 8226 (B lymphocyte cell line, multiple myeloma). Inhibition is indicated as IC50 [nM] (“-”=not measured).

[4] = test system: MM1 S (B lymphoblast cell line); assay: 48 hr CTG viability assay, MM1S; assay type: cell-based; conditions: Homo sapiens
Procedure, shortened: as §1

[5] = target: T2, β5 subunit of the human constitutive proteasome (CPS) (Homo sapiens, UniProt P28074); assay: β5 inhibition assay, human constitutive proteasome (Suc-LLVY-AMC); assay type: biochemical; conditions: IC50 class, Suc-LLVY-AMC substrate
T2 construct: purchased Boston Biochem E-360
Description: The enzymatic activity of the β5 subunit of the human constitutive proteasome (CPS) is analyzed. In another assay, which differs from the assay of the human constitutive proteasome only in using the human immunoproteasome (IPS) the enzymatic activity of the β5 subunit of the human immunoproteasome (IPS) is analyzed. […] Inhibition is indicated as IC50 [nM] (“-”=not measured).

[6] = test system: A549 (human lung carcinoma cell line); assay: Glo assay of A549 cells (Table 3; ProteasomeGlo plating scheme); assay type: cell-based; conditions: Homo sapiens
Procedure, shortened: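 Compound treatment lasts 105 minutes at 37° C. under 5% CO2. Suc-LLVY-Glo substrate premixed with detection reagent (60 min at room temperature) is then added directly to the cells, and luminescence after 10-15 min in the dark gives the IC50 in nM.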

[7] = RPMI-8226, 48 hr CTG, read-out: RPMI-8226 IC50
[8] = 48 hr CTG, read-out: Hs 746T IC50
[9] = A549 cells, read-out: PGLo A549

`Cc1ccc2cc1CNC(=O)[C@H](C1Cc3ccccc3C1)NC(=O)[C@@H](NC(=O)Cc1cn3ccsc3n1)CC(=O)N1CCCC(CCO2)C1` (stereo partly drawn) [Compound 602, N-((9S,12S)-9-(2,3-dihydro-1H-inden-2-yl)-5^4-methyl-8,11,14-trioxo-4-oxa-7,10-diaza-1(3,1)-piperidina-5(1,3)-benzenacyclotetradecaphane-12-yl)-2-(imidazo[2,1-b]thiazol-6-yl)acetamide] was tested, and the IC50 [1] was under 100 nM, the IC50 [2, 7] was under 100 nM and the IC50 [3, 8] was under 100 nM. It also gave an IC50 ([4]; 48 hr CTG, read-out: MM1S IC50) of under 100 nM, an IC50 [5] of under 100 nM and an IC50 [6, 9] of under 100 nM.
For `Cc1ccc2cc1CNC(=O)[C@H](CCc1ccccc1)NC(=O)[C@@H](NC(=O)CCOC1CC3(CNC3)C1)CC(=O)N1CCCC(CCO2)C1` (stereo partly drawn) [Compound 725, 3-((2-azaspiro[3.3]heptan-6-yl)oxy)-N-((9S,12S)-5^4-methyl-8,11,14-trioxo-9-phenethyl-4-oxa-7,10-diaza-1(3,1)-piperidina-5(1,3)-benzenacyclotetradecaphane-12-yl)propanamide], the IC50 [1] was under 100 nM, the IC50 [2, 7] was 100 to 500 nM and the IC50 [3, 8] was 100 to 500 nM. For the same compound, the IC50 ([4]; 48 hr CTG, read-out: MM1S IC50) was 100 to 500 nM, the IC50 [5] was under 100 nM and the IC50 [6, 9] was under 100 nM.
Compound `Cc1ccc2cc1CNC(=O)[C@H](CCc1ccccc1)NC(=O)[C@@H](N1CCCCC1=O)CC(=O)N1CCCC(CCO2)C1` (stereo partly drawn) [Compound 734, (9S,12S)-5^4-methyl-12-(2-oxopiperidin-1-yl)-9-phenethyl-4-oxa-7,10-diaza-1(3,1)-piperidina-5(1,3)-benzenacyclotetradecaphane-8,11,14-trione] has an IC50 [1] of 100 to 500 nM, an IC50 [2, 7] of 1000 to 5000 nM and an IC50 [3, 8] of over 5000 nM. For the same compound, the IC50 ([4]; 48 hr CTG, read-out: MM1S IC50) was 1000 to 5000 nM, the IC50 [5] was 1000 to 5000 nM and the IC50 [6, 9] was 1000 to 5000 nM.
`Cc1ccc2cc1CNC(=O)[C@H](CCc1ccncc1)NC(=O)[C@@H](NC(=O)C1(F)CCNCC1)CC(=O)N1CCCC(CCO2)C1` (stereo partly drawn) [Compound 729, 4-fluoro-N-((12S)-5^4-methyl-8,11,14-trioxo-9-(2-(pyridin-4-yl)ethyl)-4-oxa-7,10-diaza-1(3,1)-piperidina-5(1,3)-benzenacyclotetradecaphane-12-yl)piperidine-4-carboxamide] gave an IC50 [1] of under 100 nM, an IC50 [2, 7] of 100 to 500 nM and an IC50 [3, 8] of 100 to 500 nM. It also gave an IC50 ([4]; 48 hr CTG, read-out: MM1S IC50) of 100 to 500 nM, an IC50 [5] of under 100 nM and an IC50 [6, 9] of under 100 nM.
For `Cc1ccc2cc1CNC(=O)[C@H](CCc1ccccc1)NC(=O)[C@@H](NC(=O)C13CC(F)(C1)C3)CC(=O)N1CCCC(CCO2)C1` (stereo partly drawn) [Compound 633, 3-fluoro-N-((9S,12S)-5^4-methyl-8,11,14-trioxo-9-phenethyl-4-oxa-7,10-diaza-1(3,1)-piperidina-5(1,3)-benzenacyclotetradecaphane-12-yl)bicyclo[1.1.1]pentane-1-carboxamide], the IC50 [1] was under 100 nM, the IC50 [2, 7] was under 100 nM and the IC50 [3, 8] was under 100 nM. It also gave an IC50 ([4]; 48 hr CTG, read-out: MM1S IC50) of under 100 nM, an IC50 [5] of under 100 nM and an IC50 [6, 9] of under 100 nM.
In the case of `Cc1ccc2cc1CNC(=O)[C@H](CCc1ccncc1)NC(=O)[C@@H](NC(=O)Cc1ccc(N)cc1C)CC(=O)N1CCCC(CCO2)C1` (stereo partly drawn) [Compound 654, 2-(4-amino-2-methylphenyl)-N-((9S,12S)-5^4-methyl-8,11,14-trioxo-9-(2-(pyridin-4-yl)ethyl)-4-oxa-7,10-diaza-1(3,1)-piperidina-5(1,3)-benzenacyclotetradecaphane-12-yl)acetamide], the IC50 [1] is reported as under 100 nM, the IC50 [2, 7] is reported as under 100 nM and the IC50 [3, 8] is reported as under 100 nM. It also gave an IC50 ([4]; 48 hr CTG, read-out: MM1S IC50) of under 100 nM, an IC50 [5] of under 100 nM and an IC50 [6, 9] of under 100 nM.
`Cc1ccc2cc1CNC(=O)[C@H](CCc1ccccc1)NC(=O)[C@@H](NC(=O)C1CCC3(CCOCC3)CC1)CC(=O)N1CCCC(CCO2)C1` (stereo partly drawn) [Compound 584, N-((9S,12S)-5^4-methyl-8,11,14-trioxo-9-phenethyl-4-oxa-7,10-diaza-1(3,1)-piperidina-5(1,3)-benzenacyclotetradecaphane-12-yl)-3-oxaspiro[5.5]undecane-9-carboxamide] showed an IC50 [1] of under 100 nM, an IC50 [2, 7] of under 100 nM and an IC50 [3, 8] of under 100 nM. It also gave an IC50 ([4]; 48 hr CTG, read-out: MM1S IC50) of under 100 nM, an IC50 [5] of under 100 nM and an IC50 [6, 9] of under 100 nM.
Compound `Cc1ccc2cc1CNC(=O)[C@H](CCc1ccccc1)NC(=O)[C@@H](NC(=O)CCNCC1CC1)CC(=O)N1CCCC(CCO2)C1` (stereo partly drawn) [Compound 694, 3-((cyclopropylmethyl)amino)-N-((9S,12S)-5^4-methyl-8,11,14-trioxo-9-phenethyl-4-oxa-7,10-diaza-1(3,1)-piperidina-5(1,3)-benzenacyclotetradecaphane-12-yl)propanamide] has an IC50 [1] of under 100 nM, an IC50 [2, 7] of under 100 nM and an IC50 [3, 8] of under 100 nM. The IC50 ([4]; 48 hr CTG, read-out: MM1S IC50) was under 100 nM, the IC50 [5] was under 100 nM and the IC50 [6, 9] was under 100 nM.
With `Cc1ccc2cc1CNC(=O)[C@H](CCc1ccccc1)NC(=O)[C@@H](NC(=O)[C@@H](N)CCC(=O)O)CC(=O)N1CCCC(CCO2)C1` (stereo partly drawn) [Compound 724, (4S)-4-amino-5-(((9S,12S)-5^4-methyl-8,11,14-trioxo-9-phenethyl-4-oxa-7,10-diaza-1(3,1)-piperidina-5(1,3)-benzenacyclotetradecaphane-12-yl)amino)-5-oxopentanoic acid] the IC50 [1] was under 100 nM, the IC50 [2, 7] was 100 to 500 nM and the IC50 [3, 8] was 500 to 1000 nM. It also gave an IC50 ([4]; 48 hr CTG, read-out: MM1S IC50) of 100 to 500 nM, an IC50 [5] of under 100 nM and an IC50 [6, 9] of under 100 nM.
Work on `Cc1ccc2cc1CNC(=O)[C@H](CCc1ccccc1)NC(=O)[C@@H](NC(=O)CCNCc1ccc(-c3ccncc3)cc1)CC(=O)N1CCCC(CCO2)C1` (stereo partly drawn) [Compound 603, N-((9S,12S)-5^4-methyl-8,11,14-trioxo-9-phenethyl-4-oxa-7,10-diaza-1(3,1)-piperidina-5(1,3)-benzenacyclotetradecaphane-12-yl)-3-((4-(pyridin-4-yl)benzyl)amino)propanamide] yielded an IC50 [1] of under 100 nM, an IC50 [2, 7] of under 100 nM and an IC50 [3, 8] of under 100 nM. For the same compound, the IC50 ([4]; 48 hr CTG, read-out: MM1S IC50) was under 100 nM, the IC50 [5] was under 100 nM and the IC50 [6, 9] was under 100 nM.
For `Cc1ccc2cc1CNC(=O)[C@H](CCc1ccccc1)NC(=O)[C@@H](NC(=O)CCN1CCC1)CC(=O)N1CCCC(CCO2)C1` (stereo partly drawn) [Compound 702, 3-(azetidin-1-yl)-N-((9S,12S)-5^4-methyl-8,11,14-trioxo-9-phenethyl-4-oxa-7,10-diaza-1(3,1)-piperidina-5(1,3)-benzenacyclotetradecaphane-12-yl)propanamide], the IC50 [1] was under 100 nM, the IC50 ([2]; RPMI-8226, 48 h, read-out: RPMI-8226 IC50 [nM]) was under 100 nM and the IC50 ([3]; 48 h, read-out: Hs 746T IC50 [nM]) was under 100 nM. It also gave an IC50 ([4]; 48 h, read-out: MM1S IC50 [nM]) of under 100 nM, an IC50 [5] of under 100 nM and an IC50 ([6]; A549, read-out: PGLo A549 [nM]) of under 100 nM.
`Cc1ccc2cc1CNC(=O)[C@H](CCc1ccccc1)NC(=O)[C@@H](NC(=O)CCN1CC3CCC1C3)CC(=O)N1CCCC(CCO2)C1` (stereo partly drawn) [Compound 673, 3-(2-azabicyclo[2.2.1]heptan-2-yl)-N-((9S,12S)-5^4-methyl-8,11,14-trioxo-9-phenethyl-4-oxa-7,10-diaza-1(3,1)-piperidina-5(1,3)-benzenacyclotetradecaphane-12-yl)propanamide] was tested, and the IC50 [1] was under 100 nM, the IC50 [2, 7] was under 100 nM and the IC50 [3, 8] was under 100 nM. The IC50 ([4]; 48 hr CTG, read-out: MM1S IC50) was under 100 nM, the IC50 [5] was under 100 nM and the IC50 [6, 9] was under 100 nM.
`Cc1ccc2cc1CNC(=O)[C@H](CCc1ccccc1)NC(=O)[C@@H](NC(=O)C(F)(F)CN)CC(=O)N1CCCC(CCO2)C1` (stereo partly drawn) [Compound 598, 3-amino-2,2-difluoro-N-((9S,12S)-5^4-methyl-8,11,14-trioxo-9-phenethyl-4-oxa-7,10-diaza-1(3,1)-piperidina-5(1,3)-benzenacyclotetradecaphane-12-yl)propanamide] gave an IC50 [1] of under 100 nM, an IC50 [2, 7] of under 100 nM and an IC50 [3, 8] of under 100 nM. For the same compound, the IC50 ([4]; 48 hr CTG, read-out: MM1S IC50) was under 100 nM, the IC50 [5] was under 100 nM and the IC50 [6, 9] was under 100 nM.
